The numbers were not newly measured in publication PMC8463262 (Acta Pharmaceutica Sinica. B, 2020), which cites them from elsewhere.

Usually IC50 stands for the concentration at which inhibition is half-maximal.

The series has as its system PRMT5. The conditions noted are these: read-out: IC50 PRMT5.

Regarding `CCNC(=O)NCCSC[C@H]1O[C@@H](n2cnc3c(N)ncnc32)[C@H](O)[C@@H]1O` [DS437], the IC50 was 6 µM.
